This note sets out measurements from publication PMC3073003, “Peptide-Modified Surfaces for Enzyme Immobilization” (PLoS ONE, 2011).

pKd: −log10 of the molar value. Ends that are not written are not given here.

Test [1] concerns the target T1, β-galactosidase (β-Gal) (Escherichia coli, UniProt P00722). Type of test: binding, E. coli. To be noted: for Enzyme binding (Norm.): microarray of 10,000 peptides, selection described in reference [13]. The arrangement: biotin (chemical label by Sulfo-NHS-biotin on amines, about two per enzyme); purchased Sigma (St. Louis, MO). The text has this: (§1) Peptide microarrays containing 132, 20-mer single-point variants of the YHNN peptide were generated using our established, in-house printing method. […] Synthesized peptides (70% purity) were purchased from Sigma. The last three carboxy-terminal positions of each peptide constituted a glycine-serine-cysteine (GSC) linker, used for conjugating the peptides to amino-silane surfaces through the C-terminal cysteine via a maleimide linker, Sulfo-SMCC (Pierce, Rockford, IL). A Telechem Nanoprint60 was used to spot approximately 500 pL of 1 mg/mL peptide prepared in 1× PBS for each feature on glass slides with 48 Telechem series SMP2 style 946 titanium pins.
(§2) Enzyme assays on the microarrays were performed as described in the previous work. […] The array was incubated with a solution containing 10 nM Alexa™ 647- labeled β-Gal for two hours, allowing the enzyme to bind with peptides on the array surface. After washing off unbound enzymes, a fluorescent substrate analogue (FDG) was mixed with a 5% PVA solution and spin-coated onto the array surface for monitor the enzyme activity. The FDG molecules (substrate) in the PVA layer were converted to fluorescein (product), by the active enzymes bound to specific peptides on the array surface. The fluorescein molecules remained localized because of the PVA viscosity. Both the relative binding level of Alexa™ 647-labeled enzyme and the relative amount of fluorescein produced during the incubation period were determined by dual color scanning. Each array experiment was repeated at least three times under the same conditions for statistical analysis.

For test [2], the target named is T1, β-galactosidase (β-Gal). The format is biochemical, E. coli. Conditions: for Specific activity (Norm.): total bound enzyme activity divided by total binding intensity; for Specific activity (Norm.) / Activity (Norm.): normalized to amine surface 8; for Activity (Norm.): β-Gal immobilized on surface-modified microwells, 25°C. The arrangement: biotin (chemical label by Sulfo-NHS-biotin on amines, about two per enzyme); purchased Sigma (St. Louis, MO). On the procedure: Figure 1 Enzyme immobilization on peptide-modified surfaces. (a) The overall process for conjugating peptides to aminated microwells through specific reactions between C-terminal cysteines and maleimide-activated surfaces. (b) Activity of β-Gal immobilized on different surfaces. 25 nM β-Gal is first incubated with modified microwells for one hour and then enzyme activity is measured at 25°C as a function of time using 100 µM Resorufin β-D-galactopyranoside as the substrate. YHNN, QYHH, RVFK, PASM and EFSN represent β-Gal bound to various peptide-modified surfaces (see text). […] AMINE represents enzyme bound noncovalently to an aminated surface. […] Each subunit is labeled with a unique color showing the symmetry of the β-Gal structure. […] The substrate-binding sites of β-Gal are circled with right color (Glu461, Met502, Tyr503 and Glu537) according to reference 16.
(§3) Peptides were conjugated to aminated microwell surfaces through the specific reaction between C-terminal cysteines and the maleimide-activated surfaces, as shown in Figure 1a. […] The microwell plate was then briefly washed with pure water three times. […] The reaction was incubated for 4 hours at room temperature, in the dark. After the conjugation reaction was complete, the microwells were washed for 5 minutes in 1× TBST, three times, followed by three washes in water. To immobilize the enzyme on peptide-modified surfaces, 30 µL of 25 nM biotin-labeled β-Gal was incubated in the peptide-modified microwells for two hours in 10 mM phosphate buffer, pH 7.3 with 100 µM MgCl2 and 0.05% Tween 20 (v/v%), at room temperature. The microwells were washed for 5 minutes in 1× TBST, three times, followed by three washes in phosphate buffer. […] Figures S8–10 in File S1 show the detailed optimization procedures for peptide-modified surfaces.
(§4) First, 30 µL of 2 mg/mL BS^3 prepared in 1× PBS, pH 7.4 was incubated with the aminated microwells for half an hour. Then, the microwells were briefly washed with nanopure water, three times, to remove unreacted BS^3 molecules. Finally, 30 µL of biotin-labeled β-Gal was incubated with the microwells for one hour, which were then washed three times in 1× TBST, followed by three washes in phosphate buffer.
(§5) The activity assay of surface-bound β-Gal was performed on a SpectraMax M5 96-well plate reader (Molecular Device, Sunnyvale, CA) by adding 100 µL of 100 µM RBG into the wells. The relative amount of surface-bound β-Gal was measured using an enzyme linked immunosorbant assay (ELISA). β-Gal was first labeled with biotin. Alkaline phosphatase-conjugated strepavidin (0.4 mg/ml) was diluted at 1∶1000 in 1× PBS, 0.05% (v/v) Tween 20. Next, 30 µL of streptavidin solution was added to the β-Gal-bound wells and incubated for one hour at room temperature. The streptavidin solution was then removed and the plate was washed three times with TBST buffer and three times with TBS buffer. Then, 200 µL of 1 mM PNPP was added to each well. The alkaline phosphatase activity was subsequently measured by reading the absorbance increase at 405 nm on the M5 plate reader. The β-Gal binding level was determined from the activity of alkaline phosphatase-conjugated strepavidin bound to the wells.

Test [3] deals with T1, β-galactosidase (β-Gal). The format is biochemical, E. coli. The arrangement: biotin (chemical label by Sulfo-NHS-biotin on amines, about two per enzyme); purchased Sigma (St. Louis, MO). Conditions: for Enzyme activity (Norm.) / Surface specific activity (Norm.): microarray of 10,000 peptides; for Enzyme activity (Norm.): selection described in reference [13]; for Surface specific activity (Norm.): total bound enzyme activity divided by total binding intensity.
Source text: as §1, §2

The target of test [4] is T1, β-galactosidase (β-Gal). The format is binding, E. coli. The arrangement: biotin (chemical label by Sulfo-NHS-biotin on amines, about two per enzyme); purchased Sigma (St. Louis, MO). Conditions: for Binding affinity (Norm.): β-Gal bound to surface-modified microwells, 25 nM biotin-labeled β-Gal, ELISA, normalized to amine surface 8. As for the experimental part:
as §3, §4, §5
A general note: An ELISA detects its analyte on a solid surface through an enzyme-linked reagent.

The target in test [5] is T1, β-galactosidase (β-Gal). The format is biochemical, E. coli. The arrangement: biotin (chemical label by Sulfo-NHS-biotin on amines, about two per enzyme); purchased Sigma (St. Louis, MO). To be noted: read-out: apparent Km of β-Gal; peptide-modified iodoacetyl resin or free enzyme, ~150 pM enzyme, RBG 3-400 µM, 25 °C.
Experimental: The determination of the enzyme kinetic constants (KM and kcat) of immobilized β-Gal was performed on peptide-modified iodoacetyl polyacrylamide resin (UltraLink, Pierce, 50–80 µm diameter). To modify the bead surface with peptide, peptide solutions were incubated with iodoacetyl resin for one hour in 50 mM Tris buffer, 5 mM EDTA, pH 8.5. The unreacted iodacetyl groups were then capped with 50 mM L-cysteine. The amount of peptide immobilized on a bead surface was determined by comparing the peptide concentration of the unbound fraction (the remaining free peptide concentration after binding to the surface) to the starting concentration through absorbance changes at 280 nm. β-Gal was captured on the peptide-modified beads using the same protocol which immobilized the enzyme in the microwells, above. The amount of bead-immobilized β-Gal was measured by comparing the protein concentration of the unbound fraction to the starting protein concentration, determined at 280 nm. KM and Vmax (and thus kcat, using the total enzyme concentration) of β-Gal immobilized on peptide-modified beads were determined by fitting the activity vs. substrate concentration curves in the GraphPad program using the fitting equation of “Y = Vmax*X/(Km+X)”.
Colored curves: Curve fit determining the Michaelis constants of β-Gal immobilized […]
The enzyme activities are measured as a function of the concentration of […]
The target in test [6] is T1, β-galactosidase (β-Gal). Kind of test: biochemical. The arrangement: biotin (chemical label by Sulfo-NHS-biotin on amines, about two per enzyme); purchased Sigma (St. Louis, MO). The format is binding, E. coli. As for the experimental part:
as §5

Test [7] concerns the target T1, β-galactosidase (β-Gal).
Experimental: Figure 2 Point-variant screening of a lead peptide, YHNN. β-Gal was bound to a microarray containing 132 YHNN variants and its activity was measured. (a) The activity of bound β-Gal on microarrays as a function of the amount of enzyme bound to a particular variant feature at room temperature. […] All data is normalized to the binding and activity values for the lead peptide, YHNN. (b) Thermal-stability assay. β-Gal was bound to the microarray containing YHNN variants as in (a) at room temperature, followed by incubation in phosphate buffer at 55°C for one hour. Enzyme activity was then assayed at room temperature. […] (c) pH activity range assay. YHNN variant microarrays were bound to β-Gal as in (a) and incubated at room temperature in buffers with pHs ranging from 6 to 9 for one hour and then assayed for activity at the pH of incubation.
The library of single-point variants was also screened for enhanced thermal or pH stability of immobilized β-Gal. For thermal stability screening, enzyme was bound to microarrays containing the 132 single-point variants, at room temperature, and then the arrays were incubated at 55°C for one hour and assayed for activity at room temperature.
Where [8] appears, read: microarray of 132 single-point variants, room temperature.
Where [9] appears, read: peptide conjugated to aminated microwell.
Where [10] appears, read: peptide-modified aminated microwell.

T1 sequence (P00722 2-1024): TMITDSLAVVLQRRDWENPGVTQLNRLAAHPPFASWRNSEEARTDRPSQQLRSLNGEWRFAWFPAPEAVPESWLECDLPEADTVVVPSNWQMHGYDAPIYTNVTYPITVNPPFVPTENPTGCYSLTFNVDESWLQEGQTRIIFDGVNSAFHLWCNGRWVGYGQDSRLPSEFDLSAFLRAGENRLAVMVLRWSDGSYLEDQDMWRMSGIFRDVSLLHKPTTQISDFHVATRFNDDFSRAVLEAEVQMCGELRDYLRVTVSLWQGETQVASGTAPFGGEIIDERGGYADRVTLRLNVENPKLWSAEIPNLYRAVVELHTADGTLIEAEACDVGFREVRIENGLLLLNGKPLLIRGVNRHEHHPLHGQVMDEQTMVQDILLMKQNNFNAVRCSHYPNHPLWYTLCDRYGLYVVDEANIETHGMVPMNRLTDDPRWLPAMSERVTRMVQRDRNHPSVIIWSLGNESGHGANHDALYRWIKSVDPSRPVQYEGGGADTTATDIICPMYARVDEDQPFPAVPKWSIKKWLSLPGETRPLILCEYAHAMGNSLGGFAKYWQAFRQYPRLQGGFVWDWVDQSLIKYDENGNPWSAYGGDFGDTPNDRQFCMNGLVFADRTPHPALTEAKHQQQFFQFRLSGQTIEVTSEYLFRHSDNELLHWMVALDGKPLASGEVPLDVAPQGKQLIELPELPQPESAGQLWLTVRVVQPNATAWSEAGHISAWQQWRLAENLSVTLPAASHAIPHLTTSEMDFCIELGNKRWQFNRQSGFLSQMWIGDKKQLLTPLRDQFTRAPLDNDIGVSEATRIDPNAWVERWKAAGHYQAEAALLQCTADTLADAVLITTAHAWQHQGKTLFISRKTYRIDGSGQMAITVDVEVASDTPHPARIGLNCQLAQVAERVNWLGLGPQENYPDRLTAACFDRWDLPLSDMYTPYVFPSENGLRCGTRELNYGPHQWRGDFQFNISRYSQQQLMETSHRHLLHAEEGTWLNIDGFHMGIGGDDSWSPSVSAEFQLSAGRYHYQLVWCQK

EFSNPTAQVFPDFWMSDGSC: the “Enzyme binding (Norm.)” value at β-galactosidase (β-Gal) [1] is on record as 0.4. Besides, at β-galactosidase (β-Gal) [2], the “Specific activity (Norm.)” value is 0.4±0.1. Moreover, the “Activity (Norm.)” value at β-galactosidase (β-Gal) [2] (100 µM RBG) is reported as 0.05±0.01. At β-galactosidase (β-Gal) [3], the “Enzyme activity (Norm.)” value amounted to 0.7. Besides, on β-galactosidase (β-Gal) [4], the “Binding affinity (Norm.)” value was 0.1±0.01.
Take YHNNPGFRYMQQNKLHHGSC [Peptide V9Y]: the “binding of β-Gal relative to YHNN lead peptide” value at β-galactosidase (β-Gal) [1] (setting [8]) is recorded as 1.5 fold. Also, the “specific activity of immobilized β-Gal relative to YHNN” value at β-galactosidase (β-Gal) [2] (setting [9]) was roughly 2 fold. Also, on β-galactosidase (β-Gal) [2] (setting [10]), the “total bound enzymatic activity relative to the NHS surface” value was roughly 12 fold and the “total bound enzymatic activity relative to the amine surface” value was “more than 5 fold”. Also, the “total activity of the bound enzyme relative to YHNN” value at β-galactosidase (β-Gal) [2] (peptide-modified aminated microwell, 100 µM RBG) is listed as roughly 5 fold. For the same sequence, the “total bound enzyme activity compared with YHNN” value at β-galactosidase (β-Gal) [2] (single-point variants on aminated microwell surfaces) is given as “improvement”. Further, the “specific activity of bound β-Gal relative to YHNN lead peptide” value at β-galactosidase (β-Gal) [3] (setting [8]) is recorded as roughly 3 fold. Besides, the “binding of immobilized β-Gal relative to YHNN” value on β-galactosidase (β-Gal) [4] (setting [9]) is recorded as roughly 2 fold.
As to YHNNPGFRVMQQNKLHHGSC [YHNN], the Km on β-galactosidase (β-Gal) [5] was roughly 240 µM. On β-galactosidase (β-Gal) [6], the pKd is roughly 8.30.
For the sequence QYHHFMNLKRQGRAQAYGSC [QYHH], the Km on β-galactosidase (β-Gal) [5] worked out at 250 µM. This sequence also gave a pKd at β-galactosidase (β-Gal) [6] of roughly 8.40.
As for PASMFSYFKKQGYYYKLGSC, the “Enzyme binding (Norm.)” value at β-galactosidase (β-Gal) [1] stood at 63.9. For the same sequence, the “Specific activity (Norm.)” value at β-galactosidase (β-Gal) [2] turned out to be 0.5±0.1. Besides, at β-galactosidase (β-Gal) [2] (100 µM RBG), the “Activity (Norm.)” value is 0.3±0.06. Further, at β-galactosidase (β-Gal) [3], the “Enzyme activity (Norm.)” value was 2.3 and the “Surface specific activity (Norm.)” value was 0.16. Besides, the “Binding affinity (Norm.)” value at β-galactosidase (β-Gal) [4] was determined as 0.5±0.1.
Take YHNNPGFRVMQANKLHHGSC [Peptide Q12A]: at β-galactosidase (β-Gal) [7] (microarray incubated one hour at pH 6 and assayed at that pH), the “specific activity increase of bound β-Gal compared to YHNN lead peptide at pH 6” value amounted to 4.1 fold. In addition, at β-galactosidase (β-Gal) [7] (microarray incubated one hour at pH 9 and assayed at that pH), the “specific activity increase of bound β-Gal compared to YHNN lead peptide at pH 9” value turned out to be 2.8 fold.
Turning to RVFKRYKRWLHVSRYYFGSC, the “Enzyme binding (Norm.)” value at β-galactosidase (β-Gal) [1] worked out at 50.3. For the same sequence, the “Specific activity (Norm.)” value on β-galactosidase (β-Gal) [2] was 0.1±0.01. Further, the “Activity (Norm.)” value on β-galactosidase (β-Gal) [2] (100 µM RBG) is listed as 0.1±0.01. Further, at β-galactosidase (β-Gal) [3], the “Enzyme activity (Norm.)” value was determined as 0.9 and the “Surface specific activity (Norm.)” value worked out at 0.08. Further, on β-galactosidase (β-Gal) [4], the “Binding affinity (Norm.)” value worked out at 0.9±0.05.

By Km is commonly meant the concentration of substrate that gives half-maximal velocity. A word on the pKd: it is the Kd on a negative log10 scale, so that one unit is a factor of ten. A lower pKd goes with a large Kd.
